Assay results taken from patent publication US20240270741A1 (Cogent Biosciences, Inc., priority 2023, published 2024).

The compounds below were run against FGFR2 (Homo sapiens, UniProt P21802) (assay: FGFR wild type enzyme assay (HTRF KinEASE-TK), FGFR2). Conditions: Enz FGFR2 (nM), FGFR2 wild type enzyme.
FGFR2, sequence (P21802 399-821 limits assumed): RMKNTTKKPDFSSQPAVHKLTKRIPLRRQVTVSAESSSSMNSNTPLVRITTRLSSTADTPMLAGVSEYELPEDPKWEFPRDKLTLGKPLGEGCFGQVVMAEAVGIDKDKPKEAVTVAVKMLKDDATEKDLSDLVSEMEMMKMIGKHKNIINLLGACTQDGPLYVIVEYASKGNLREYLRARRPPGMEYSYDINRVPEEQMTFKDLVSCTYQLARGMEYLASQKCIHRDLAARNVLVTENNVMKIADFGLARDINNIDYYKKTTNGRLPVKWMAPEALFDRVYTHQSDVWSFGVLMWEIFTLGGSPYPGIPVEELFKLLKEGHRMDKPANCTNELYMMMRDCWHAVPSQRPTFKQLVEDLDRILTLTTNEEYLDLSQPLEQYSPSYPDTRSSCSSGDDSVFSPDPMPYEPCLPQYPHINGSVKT
Compound CCN(C)[C@H]1CC[C@@H](n2ncc(-c3cc(Sc4ccccc4C#N)c4c(C#N)cnn4c3)c2C)CC1 [Example 256, 4-((2-cyanophenyl)thio)-6-(1-((1s,4s)-4-(ethyl(methyl)amino)cyclo-hexyl)-5-methyl-1H-pyrazol-4-yl)pyrazolo[1,5-a]pyridine-3-carbonitrile] has an IC50 of 1 nM.
Cc1c(-c2cc(Sc3ccccc3C#N)c3c(C#N)cnn3c2)cnn1[C@H]1CC[C@@H](NCC2(C)CC2)CC1 [Example 257, 4-((2-cyanophenyl)thio)-6-(5-methyl-1-((1s,4s)-4-(((1-methylcyclopropyl)methyl)amino)cyclohexyl)-1H-pyrazol-4-yl)pyrazolo[1,5-a]pyridine-3-carbonitrile] was tested, and the IC50 was 0.5 nM.
N#Cc1ccccc1Sc1cc(-c2cnn(CC(F)(F)F)c2)cn2ncc(C#N)c12 [Example 258] showed an IC50 of 2 nM.
Compound CC(=O)N1C[C@H]2C[C@@H](n3ncc(-c4cc(Sc5ncccc5F)c5c(C#N)cnn5c4)c3C)C[C@H]2C1 [Example 259, 6-(1-((3aR,5r,6aS)-2-acetyloctahydrocyclopenta [c]pyrrol-5-yl)-5-methyl-1H-pyrazol-4-yl)-4-((3-fluoropyridin-2-yl)thio)pyrazolo[1,5-a]pyridine-3-carbonitrile] has an IC50 of 1.5 nM.
Work on Cc1c(-c2cc(Sc3ccccc3C#N)c3c(C#N)cnn3c2)cnn1[C@H]1CC[C@@](C)(O)CC1 [Example 260, 4-(2-cyanophenyl)sulfanyl-6-[1-(4-hydroxy-4-methyl-cyclohexyl)-5-methyl-pyrazol-4-yl]pyrazolo[1,5-a]pyridine-3-carbonitrile] yielded an IC50 of 1 nM.
Cc1c(-c2cc(Sc3ccccc3C#N)c3c(C#N)cnn3c2)cnn1[C@H]1CC[C@](C)(O)CC1 [Example 261, 4-((2-cyanophenyl)thio)-6-(1-((1r,4r)-4-hydroxy-4-methylcyclohexyl)-5-methyl-1H-pyrazol-4-yl)pyrazolo[1,5-a]pyridine-3-carbonitrile] was tested, and the IC50 was 0.5 nM.
CC(=O)N1[C@@H]2CC[C@H]1C[C@@H](n1ncc(-c3cc(Sc4ncccc4F)c4c(C#N)cnn4c3)c1C)C2 [Example 262, 6-(1-((1R,3r,5S)-8-acetyl-8-azabicyclo[3.2.1]octan-3-yl)-5-methyl-1H-pyrazol-4-yl)-4-((3-fluoropyridin-2-yl)thio)pyrazolo[1,5-a]pyridine-3-carbonitrile] was tested, and the IC50 was 3 nM.
For CC(=O)N1[C@@H]2CC[C@H]1C[C@H](n1ncc(-c3cc(Sc4ncccc4F)c4c(C#N)cnn4c3)c1C)C2 [Example 263, 6-(1-((1R,3s,5S)-8-acetyl-8-azabicyclo[3.2.1]octan-3-yl)-5-methyl-1H-pyrazol-4-yl)-4-((3-fluoropyridin-2-yl)thio)pyrazolo[1,5-a]pyridine-3-carbonitrile], the IC50 was 3 nM.
Work on Cc1c(-c2cc(Sc3ccccc3C#N)c3c(C#N)cnn3c2)cnn1[C@H]1C[C@H]2CC[C@@H](C1)N2C [Example 264, 4-((2-cyanophenyl)thio)-6-(5-methyl-1-((1R,3r,5S)-8-methyl-8-azabicyclo[3.2.1]octan-3-yl)-1H-pyrazol-4-yl)pyrazolo[1,5-a]pyridine-3-carbonitrile] yielded an IC50 of 1 nM.
Cc1c(-c2cc(Sc3ccccc3C#N)c3c(C#N)cnn3c2)cnn1[C@@H]1C[C@H]2CC[C@@H](C1)N2C [Example 265, 4-((2-cyanophenyl)thio)-6-(5-methyl-1-((1R,3s,5S)-8-methyl-8-azabicyclo[3.2.1]octan-3-yl)-1H-pyrazol-4-yl)pyrazolo[1,5-a]pyridine-3-carbonitrile] showed an IC50 of 0.4 nM.
With Cc1c(-c2cc(Sc3ccccc3C#N)c3c(C#N)cnn3c2)cnn1C1CCN(CC(=O)N(C)C)CC1 [Example 266, 2-(4-(4-(3-cyano-4-((2-cyanophenyl)thio)pyrazolo [1,5-a]pyridin-6-yl)-5-methyl-1H-pyrazol-1-yl)piperidin-1-yl)-N,N-dimethylacetamide] the IC50 was 0.5 nM.
Cc1c(-c2cc(Sc3ccccc3C#N)c3c(C#N)cnn3c2)cnn1C1CCN(Cc2ccccn2)CC1 [Example 267, 4-((2-cyanophenyl)thio)-6-(5-methyl-1-(1-(pyridin-2-ylmethyl)piperidin-4-yl)-1H-pyrazol-4-yl)pyrazolo[1,5-a]pyridine-3-carbonitrile] was tested, and the IC50 was 0.6 nM.
For Cc1c(-c2cc(Sc3ccccc3C#N)c3c(C#N)cnn3c2)cnn1[C@H]1CC[C@@H](NC(=O)C(C)(C)O)CC1 [Example 268, N-((1s,4s)-4-(4-(3-cyano-4-((2-cyanophenyl)thio)pyrazolo [1,5-a]pyridin-6-yl)-5-methyl-1H-pyrazol-1-yl)cyclohexyl)-2-hydroxy-2-methylpropanamide], the IC50 was 0.4 nM.
For Cc1c(-c2cc(Sc3ncccc3F)c3c(C#N)cnn3c2)cnn1[C@H]1CC[C@@H](NCC(=O)N(C)C)CC1 [Example 269, 2-(((1s,4s)-4-(4-(3-cyano-4-((3-fluoropyridin-2-yl)thio)pyrazolo[1,5-a]pyridin-6-yl)-5-methyl-1H-pyrazol-1-yl)cyclohexyl)amino)-N,N-dimethylacetamide], the IC50 was 1 nM.
Cc1c(-c2cc(Sc3ncccc3F)c3c(C#N)cnn3c2)cnn1[C@H]1CC[C@@H](NCc2ccccn2)CC1 [Example 270, 4-((3-fluoropyridin-2-yl)thio)-6-(5-methyl-1-((1s,4s)-4-((pyridin-2-ylmethyl)amino)cyclohex-yl)-1H-pyrazol-4-yl)pyrazolo[1,5-a]pyridine-3-carbonitrile] showed an IC50 of 0.7 nM.
Compound Cc1c(-c2cc(Sc3ncccc3F)c3c(C#N)cnn3c2)cnn1[C@H]1CC[C@@H](NC(=O)C(C)(C)O)CC1 [Example 271, N-((1s,4s)-4-(4-(3-cyano-4-((3-fluoropyridin-2-yl)thio)pyrazolo[1,5-a]pyridin-6-yl)-5-methyl-1H-pyrazol-1-yl)cyclohexyl)-2-hydroxy-2-methylpropanamide] has an IC50 of 1 nM.
Compound CC(=O)N[C@H]1CC[C@H](n2ncc(-c3cc(Sc4ccccc4C#N)c4c(C#N)cnn4c3)c2C)CC1 [Example 272, N-((1r,4r)-4-(4-(3-cyano-4-((2-cyanophenyl)thio)pyrazolo [1,5-a]pyridin-6-yl)-5-methyl-1H-pyrazol-1-yl)cyclohexyl)acetamide] has an IC50 of 1 nM.
For CC(=O)N[C@H]1CC[C@@H](n2ncc(-c3cc(Sc4ccccc4C#N)c4c(C#N)cnn4c3)c2C)CC1 [Example 273, N-((1s,4s)-4-(4-(3-cyano-4-((2-cyanophenyl)thio)pyrazolo [1,5-a]pyridin-6-yl)-5-methyl-1H-pyrazol-1-yl)cyclohexyl)acetamide], the IC50 was 0.5 nM.
CC(=O)N[C@H]1CC[C@H](n2ncc(-c3cc(Sc4ccc(F)cc4C#N)c4c(C#N)cnn4c3)c2C)CC1 [Example 274, N-((1r,4r)-4-(4-(3-cyano-4-((2-cyano-4-fluorophenyl)thio)pyrazolo [1,5-a]pyridin-6-yl)-5-methyl-1H-pyrazol-1-yl)cyclohexyl)acetamide] was tested, and the IC50 was 1 nM.
Cc1c(-c2cc(Sc3ccc(F)cc3C#N)c3c(C#N)cnn3c2)cnn1[C@H]1CC[C@H](O)CC1 [Example 275, 4-(2-cyano-4-fluoro-phenyl)sulfanyl-6-[1-(4-hydroxycyclohexyl)-5-methyl-pyrazol-4-yl]pyrazolo[1,5-a]pyridine-3-carbonitrile] gave an IC50 of 1 nM.
Compound Cc1c(-c2cc(Sc3ncccc3F)c3c(C#N)cnn3c2)cnn1[C@H]1CCNC[C@@H]1O [Example 276, 4-[(3-fluoro-2-pyridyl)sulfanyl]-6-[1-[(3S,4S)-3-hydroxy-4-piperidyl]-5-methylpyrazol-4-yl]pyrazolo[1,5-a]pyridine-3-carbonitrile] has an IC50 of 3 nM.
